The values below come from ChEMBL document CHEMBL5724796, “Tm Shift (DSF) assay results for EUbOPEN Chemogenomics Library” (2024).

Residues, ends and D or L forms follow the SMILES beside them.

One assay has as its target T1, Peregrin (Homo sapiens) (UniProt P55201).
T1 sequence (whole entry): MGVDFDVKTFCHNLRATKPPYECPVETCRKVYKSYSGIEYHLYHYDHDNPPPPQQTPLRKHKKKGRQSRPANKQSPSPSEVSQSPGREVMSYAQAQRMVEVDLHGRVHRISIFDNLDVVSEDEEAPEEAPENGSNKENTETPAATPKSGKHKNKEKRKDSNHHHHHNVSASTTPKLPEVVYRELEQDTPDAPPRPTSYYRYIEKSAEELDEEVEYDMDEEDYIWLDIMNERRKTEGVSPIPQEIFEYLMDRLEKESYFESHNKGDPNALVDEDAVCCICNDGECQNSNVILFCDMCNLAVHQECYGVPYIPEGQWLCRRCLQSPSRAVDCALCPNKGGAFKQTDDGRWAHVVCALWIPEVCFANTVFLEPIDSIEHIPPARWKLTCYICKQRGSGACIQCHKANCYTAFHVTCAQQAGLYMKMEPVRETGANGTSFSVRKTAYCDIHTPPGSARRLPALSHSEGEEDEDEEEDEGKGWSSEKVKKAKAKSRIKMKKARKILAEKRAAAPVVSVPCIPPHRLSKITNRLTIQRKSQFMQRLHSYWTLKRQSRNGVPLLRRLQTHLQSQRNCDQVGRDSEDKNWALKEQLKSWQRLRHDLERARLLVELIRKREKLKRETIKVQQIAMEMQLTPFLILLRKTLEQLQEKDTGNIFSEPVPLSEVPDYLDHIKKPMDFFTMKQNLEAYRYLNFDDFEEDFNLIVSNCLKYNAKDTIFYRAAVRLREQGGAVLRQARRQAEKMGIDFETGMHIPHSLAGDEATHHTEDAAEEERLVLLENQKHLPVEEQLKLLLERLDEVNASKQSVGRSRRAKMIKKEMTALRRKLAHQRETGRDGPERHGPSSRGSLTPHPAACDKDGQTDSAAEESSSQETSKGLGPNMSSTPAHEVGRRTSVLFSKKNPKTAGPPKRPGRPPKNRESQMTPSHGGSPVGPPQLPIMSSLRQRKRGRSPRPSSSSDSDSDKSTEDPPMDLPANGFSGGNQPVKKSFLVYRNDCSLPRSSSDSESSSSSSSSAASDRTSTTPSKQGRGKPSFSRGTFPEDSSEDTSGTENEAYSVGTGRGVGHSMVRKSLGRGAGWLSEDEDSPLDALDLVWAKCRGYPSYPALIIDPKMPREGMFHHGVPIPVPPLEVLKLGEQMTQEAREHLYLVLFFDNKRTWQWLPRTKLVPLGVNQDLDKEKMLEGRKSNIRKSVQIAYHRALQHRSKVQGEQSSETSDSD
The conditions noted are these: Compound concentration 20.0 uM.

For assay [1], the target named is Fibroblast growth factor receptor 2 (Homo sapiens) (UniProt P21802). The conditions noted are these: Compound concentration 20.0 uM.
Fibroblast growth factor receptor 2 (Homo sapiens), sequence (P21802 22-821 limits assumed): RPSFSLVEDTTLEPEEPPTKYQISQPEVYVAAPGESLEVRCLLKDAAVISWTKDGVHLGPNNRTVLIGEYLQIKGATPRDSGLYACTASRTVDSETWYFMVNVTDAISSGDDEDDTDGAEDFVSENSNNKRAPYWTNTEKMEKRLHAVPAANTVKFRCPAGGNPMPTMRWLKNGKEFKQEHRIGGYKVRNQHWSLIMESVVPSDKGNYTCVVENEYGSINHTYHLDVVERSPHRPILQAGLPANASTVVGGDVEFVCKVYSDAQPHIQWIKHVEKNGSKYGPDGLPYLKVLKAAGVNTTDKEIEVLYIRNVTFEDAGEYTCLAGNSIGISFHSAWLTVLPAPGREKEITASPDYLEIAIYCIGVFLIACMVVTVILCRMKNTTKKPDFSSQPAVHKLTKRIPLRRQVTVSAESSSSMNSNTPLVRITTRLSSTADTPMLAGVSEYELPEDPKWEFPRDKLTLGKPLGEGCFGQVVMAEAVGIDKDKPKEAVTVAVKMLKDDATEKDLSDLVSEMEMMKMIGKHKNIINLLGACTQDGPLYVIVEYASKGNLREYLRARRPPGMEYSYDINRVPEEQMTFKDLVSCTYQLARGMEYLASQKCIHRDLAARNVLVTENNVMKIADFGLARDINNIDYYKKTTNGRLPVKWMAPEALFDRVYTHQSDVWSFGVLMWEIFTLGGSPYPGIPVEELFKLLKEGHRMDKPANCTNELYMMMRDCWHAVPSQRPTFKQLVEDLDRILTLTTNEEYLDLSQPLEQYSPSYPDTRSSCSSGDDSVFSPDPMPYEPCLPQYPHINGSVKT
Description: Thermal Shift Assay. Domain: start/stop: T457-E768

In the case of `N#Cc1cc(F)cc(Oc2ccc3c(c2C(F)F)[C@@H](O)C(F)(F)S3(=O)=O)c1`, the ΔTm (commonly the change in melting temperature against a reference sample) is 2.23 °C on Peregrin (Homo sapiens) and -0.59 °C in assay [1].
With `Nc1ncnc2c1ncn2[C@@H]1O[C@H](C(=O)N2CCN(CC(=O)Nc3cccc4c3CNC4=O)CC2)[C@@H](O)[C@H]1O`, the values for the shift in melting temperature (ΔTm) (on Peregrin (Homo sapiens); in assay [1]) were -1.21 °C and 0.74 °C, respectively.
The matching figures for `NCCCOc1cc2ccccc2cc1C(=O)NCCOc1cc2ccccc2cc1C(=O)Nc1ccc(Cl)cc1O`: 0 °C and -1.59 °C.
The matching figures for `COC(=O)C[C@@H]1N=C(c2ccc(Cl)cc2)c2c(sc(C)c2C)-n2c(C)nnc21`: -0.95 °C and 0.53 °C.
For the compound `CC(C)Nc1cc(-c2c[nH]c(C(=O)N[C@H](CO)c3cccc(Cl)c3)c2)c(Cl)cn1`, the ΔTm came out at 0.61 °C on Peregrin (Homo sapiens) and 0.33 °C in assay [1].
As for `N[C@H](C(=O)O)[C@H](OCc1cccc(NC(=O)c2ccc(C(F)(F)F)cc2)c1)C(=O)O`, the ΔTm at Peregrin (Homo sapiens) is 0.9 °C; in assay [1], -0.22 °C.
The matching figures for `CCCCCCCCCCCCCCCCNNC(=O)c1cccs1`: -0.84 °C and 0.53 °C.
The matching figures for `Cc1sc2c(c1C)C(c1ccc(Cl)cc1)=N[C@@H](CC(=O)OC(C)(C)C)c1nnc(C)n1-2`: -1.61 °C and 0.6 °C.
The matching figures for `C[C@@H](Oc1ccc(S(C)(=O)=O)cc1C(=O)N1C[C@@H]2C[C@]2(c2cc(C(F)(F)F)on2)C1)C(F)(F)F`: 0.16 °C and -0.81 °C.
Regarding `CSCC[C@H](NC(=O)[C@H](CC(=O)O)NC(C)=O)C(=O)N[C@@H](CCC(N)=O)C(=O)N[C@H](C=O)CC(=O)O` (Ac-DMQD-aldehyde), the ΔTm was -1.78 °C on Peregrin (Homo sapiens) and 0.77 °C in assay [1].
The matching figures for `C[C@]12O[C@H](C[C@]1(O)CO)n1c3ccccc3c3c4c(c5c6ccccc6n2c5c31)CNC4=O`: -0.7 °C and 5.19 °C.
The matching figures for `Cc1cc(C(=O)CN2CCCCC2)c(C)n1-c1ccc(Cl)cc1`: -1.17 °C and -0.09 °C.
As to `CNCCCN1c2ccccc2CCc2ccccc21`, the ΔTm at Peregrin (Homo sapiens) is 1.05 °C; in assay [1], -0.25 °C.
The matching figures for `COc1cc2c(cc1OC)[C@H]1C[C@@H](O)[C@H](CC(C)C)CN1CC2`: 0.34 °C and 0.33 °C.
`C[C@@H]1O[C@@H](CC(=O)O)CC2=C1C(=O)c1c(O)cccc1C2=O`: the ΔTm at Peregrin (Homo sapiens) is 0.11 °C; in assay [1], -0.89 °C.
Turning to `Nc1ncnc2c1c(I)cn2[C@@H]1O[C@H](CO)[C@@H](O)[C@H]1O`, the ΔTm on Peregrin (Homo sapiens) is 2.98 °C; in assay [1], 2.17 °C.
The matching figures for `COc1ccc2c(c1)OC(C)(C)C(c1ccccc1)C2c1ccc(OCCN2CCCC2)cc1` (configuration not stated): -2.59 °C and 0.15 °C.
The matching figures for `CCC(CC)(NC(=O)C(C)C)C(=O)N[C@@H](CCCNC(=N)N)C(=O)NC1(C(=O)NC(c2ccc(F)cc2)c2ccc(F)cc2)CCCC1`: -0.95 °C and -3.44 °C.
The matching figures for `CC(C)[C@@H]1NC(=O)[C@H](Cc2ccc(O)cc2)NC(=O)[C@@H](CC(=O)O)NC(=O)S[C@@H](C(=O)O)NC(=O)[C@H]([C@H](C)O)NC(=O)[C@H](Cc2ccc(O)cc2)NC(=O)[C@H](Cc2c[nH]c3ccccc23)NC(=O)[C@H](CCCNC(=N)N)NC(=O)[C@H](Cc2c[nH]c3ccccc23)NC(=O)[C@H](C)NC(=O)[C@H](CO)NC(=O)[C@H](CCCNC(=N)N)NC(=O)[C@H]([C@H](C)O)NC(=O)[C@H](CC(N)=O)NC(=O)[C@H](Cc2ccc(O)cc2)NC1=O`: 1.38 °C and 0.32 °C.
Turning to `CC(=O)N[C@@H](CC(=O)O)C(=O)N[C@@H](CCC(=O)O)C(=O)N[C@H](C(=O)N[C@@H](CC(=O)O)C(=O)CCl)C(C)C`, the values for the ΔTm (at Peregrin (Homo sapiens); in assay [1]) were -1.75 °C and 0.6 °C, respectively.
The matching figures for `NC(=O)c1cccc(NC(=O)CCC(=O)NCCc2cn(CCNS(=O)(=O)c3cccc(C(=O)O)c3)nn2)c1`: -1.38 °C and -1.91 °C.
With `O=C(CCCCCCC(=O)Nc1ccc([C@H]2O[C@@H](CSc3nc(-c4ccccc4)c(-c4ccccc4)o3)C[C@@H](c3ccc(CO)cc3)O2)cc1)NO`, the ΔTm was 0 °C at Peregrin (Homo sapiens) and -10.7 °C in assay [1].
The matching figures for `c1ccc(Cn2c(-c3ccc(OC[C@H](C4CCNCC4)n4c(-c5ccccc5)nc5ccccc54)cc3)nc3ccccc32)cc1`: -5.25 °C and -8.18 °C.
The matching figures for `O=C(NO)c1cnc(NC2(c3ccccc3)CC2)nc1`: -1.33 °C and 0.35 °C.
The matching figures for `COC(=O)C1=C(C(=O)OC)[C@@]2([C@@H](Cc3ccc(C)cc3)Nc3ccccc3)C=C[C@@H]1O2`: -3.55 °C and 0.51 °C.
As to `CS(=O)(=O)c1ccc(Oc2cc(F)cc(C#N)c2)c2c1C(O)C(F)C2` (configuration not stated), the ΔTm is 0.86 °C at Peregrin (Homo sapiens) and -0.57 °C in assay [1].
The matching figures for `CCCC(NC(=O)C(CC(C)C)NC(=O)OCc1ccccc1)C(=O)C(=O)NCc1ccccn1` (racemic): -1.7 °C and 0.15 °C.
The matching figures for `FC(F)(F)Cn1cc(-c2ccncc2)c(-c2ccc(OCc3ccc4ccccc4n3)cc2)n1`: 0.9 °C and 0.04 °C.
The matching figures for `COc1cc(O)cc(CN2CCc3c(cc(Cn4ccn(C)c4=N)cc3-c3ccc(F)cc3C)C2=O)c1`: -1.15 °C and -1.31 °C.
In the case of `NS(=O)(=O)c1cc(-c2nnn[nH]2)c(NCc2cccs2)cc1Cl`, the ΔTm on Peregrin (Homo sapiens) (Protein concentration 2.0 uM) was found to be 2 °C; in assay [1], 0.38 °C.
Regarding `COc1ccc(/C=C/C(=O)NO)c(-c2ccc(-c3ccccc3)cc2)c1`, the ΔTm is -5.43 °C at Peregrin (Homo sapiens) and -5.03 °C in assay [1].
The matching figures for `O=C(Oc1cccc(F)c1OC(=O)c1cccc(O)c1)c1cccc(O)c1`: 3.01 °C and 0.56 °C.
The matching figures for `Cc1cc(Cl)cc(-c2c3sc(CN4C(=O)C5C(C4=O)C5(C)C)cc3nn2C)c1OC1CCNCC1` (configuration not stated): 0.52 °C and -0.72 °C.
For the compound `CN(C)Cc1ccc(S(=O)(=O)n2ccc(/C=C/C(=O)NO)c2)cc1`, the results for the ΔTm (at Peregrin (Homo sapiens); in assay [1]) were -0.83 °C and 0.36 °C, respectively.
The matching figures for `CCCOc1ccc(CCc2nc3cc(-c4c(C)noc4C)ccc3n2CCN2CCOCC2)cc1`: -1.09 °C and -0.48 °C.
The matching figures for `CCc1c(C#N)c(S[C@@H](C(N)=O)c2ccccc2)nc(N(C)C)c1C#N`: 2.36 °C and -0.11 °C.
The matching figures for `Cc1ncsc1-c1ccc(CNC(=O)[C@@H]2C[C@@H](O)CN2C(=O)[C@@H](NC(=O)COCC(C)(COCCOCCOCCNC(=O)C[C@@H]2N=C(c3ccc(Cl)cc3)c3c(sc(C)c3C)-n3c(C)nnc32)COCCOCCOCCNC(=O)C[C@@H]2N=C(c3ccc(Cl)cc3)c3c(sc(C)c3C)-n3c(C)nnc32)C(C)(C)C)cc1`: -5.29 °C and -1.18 °C.
As to `Cc1cc(-n2cccc2)c(S(C)(=O)=O)cc1C(=O)N=C(N)N`, the values for the ΔTm (at Peregrin (Homo sapiens); in assay [1]) were 2.16 °C and -0.71 °C, respectively.
The matching figures for `CCCOc1cccc(Oc2cc3c(cc2NS(=O)(=O)c2cccc(C(=O)NCCOCCOCCOCC(=O)N[C@H](C(=O)N4C[C@H](O)C[C@H]4C(=O)NCc4ccc(-c5scnc5C)cc4)C(C)(C)C)c2)n(C)c(=O)n3C)c1`: 1.17 °C and -3.12 °C.
The matching figures for `C=Cc1cc(C(=O)Nc2ccc(C(=N)N)cc2)c(-c2ccc(C(=O)NCC3CC3)nc2C(=O)O)cc1OC`: 2.91 °C and 0.02 °C.
The matching figures for `CNc1nccc(CN([C@H]2CC[C@H](N)CC2)S(=O)(=O)c2ccc(S(=O)(=O)N(Cc3ccc(Cl)cc3)C3CCCC3)cc2)n1`: -1.21 °C and -1.14 °C.
As to `CN(CCCN1c2ccccc2CCc2ccccc21)CC(=O)c1ccc(Cl)cc1`, the ΔTm on Peregrin (Homo sapiens) was -0.12 °C; in assay [1], 0.53 °C.
The matching figures for `COc1cc(Cl)ccc1C1=CN(c2ccc(-c3ccccc3OC)cc2)C2=NCCCN12`: -0.95 °C and -1.01 °C.
For the compound `CN(CCC(Oc1ccc(-c2ccccc2)cc1)c1ccc(F)cc1)CC(=O)O` (configuration not stated), the ΔTm amounted to 1.93 °C at Peregrin (Homo sapiens) and 0.44 °C in assay [1].
The matching figures for `Cc1cc(-c2ccc3nc(C4CCOCC4)n(CCOC(F)(F)F)c3c2)cn(C)c1=O`: 4.67 °C and 0.33 °C.
The matching figures for `CCC1CCCCN1C(=O)n1ncc(C(O)(c2ccccc2)c2ccccc2)n1` (configuration not stated): -0.98 °C and -0.25 °C.
